Values quoted from earlier work, collected in PMC3201700 (Journal of agricultural and food chemistry, 2011).
Where two headings read alike, the source gives them in different places.

Assays:
[1] = rats
[2] = system: MRP1 and MRP2; conditions: SFN compared with ERN

SMILES | Recovery of the dose in the urine after 24 h ([1]; by gavage) [%] | Recovery of the dose in the urine after 24 h ([1]; in the diet) [%] | Induction of MRP1 and MRP2 (phase III detoxification) [2]
C[S+]([O-])CCCC/C(=N\OS(=O)(=O)O)S[C@@H]1O[C@H](CO)[C@@H](O)[C@H](O)[C@H]1O (stereo partly drawn) [glucoraphanin] | 27.6 | 23.8 | 
C[S+]([O-])CCCCN=C=S (stereo not drawn) [SFN, sulforaphane] |  |  | substantially more potent than ERN
